From US7101878B1 (Agouron Pharmaceuticals, Inc., priority 1998, dated 2006)
pIC50: −log10 of the molar value. Where two headings read alike, the source gives them in different places.

Target: T1, human GnRH receptor (Homo sapiens, UniProt P30968)
T1 construct: expressed in transfected cells; host or cells: HEK 293 (hGnRH-R/293, from Dr. Stuart Sealfon)
T1 sequence (P30968 1-328): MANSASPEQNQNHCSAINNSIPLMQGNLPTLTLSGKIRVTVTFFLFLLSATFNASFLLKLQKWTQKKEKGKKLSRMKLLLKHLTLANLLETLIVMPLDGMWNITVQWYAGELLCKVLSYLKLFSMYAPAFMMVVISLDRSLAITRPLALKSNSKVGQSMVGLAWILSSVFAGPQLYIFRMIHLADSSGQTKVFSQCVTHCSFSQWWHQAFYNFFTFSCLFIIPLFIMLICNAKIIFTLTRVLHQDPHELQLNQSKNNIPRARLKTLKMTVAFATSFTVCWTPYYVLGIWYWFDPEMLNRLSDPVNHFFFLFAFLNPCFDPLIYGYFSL
Experiment: Radioligand binding, 125I-GnRH-A displacement, membranes of HEK 293 cells with human GnRH receptor
Conditions: for remaining activity at 1 µM / remaining activity at 10 µM: substrate remaining, closer to zero = closer to 100% inhibition; for remaining activity at 1 µM: 1 uM compound, read-out: S%R 1 uM hGnRHR; for remaining activity at 10 µM: 10 uM compound, read-out: S%R 10 uM hGnRHR; for pIC50: read-out: hGnRH IC50
Summary of the method: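 After filtration and PBS washes, bound radioactivity was counted by scintillation and IC50 derived. Identical conditions applied for non-human receptors.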

[1] = 1 uM, read-out: % Inhib. @ 1 uM hGnRH
[2] = 1 h, repeat of % Inhib. at 1 uM, read-out: Repeats @ 1 uM hGnRH

| Structure (SMILES) | inhibition at 1 µM [1] [%] | inhibition at 1 µM [2] [%] | also measured |
| --- | --- | --- | --- |
| Cc1cc2c(cc1Cc1ccc(C(=O)NC3c4ccccc4CC3O)o1)C(C)(C)CCC2(C)C (stereo not drawn) | -11 | -29 |  |
| Cc1cnc(CNC(=O)c2ccc(Cc3cc4c(cc3C)C(C)(C)CCC4(C)C)o2)cn1 [drawing 1009] |  |  | inhibition at 1 µM (1 h, read-out: Repeats @ 1 uM hGnRH): 107%; inhibition at 1 µM (read-out: % Inhib. @ 1 uM hGnRH): 102% |
| COc1ccc(CNC(=O)c2ccc(Cc3cc4c(cc3C)C(C)(C)CCC4(C)C)o2)cc1 [Compound 414] |  |  | remaining activity at 1 µM (1 h): 10% |
| Cc1cc2c(cc1Cc1ccc(C(=O)Nc3nnc(C4CC4)s3)o1)C(C)(C)CCC2(C)C [Compound 336] |  |  | remaining activity at 10 µM (1 h): 57% |
| Cc1cc2c(cc1Cc1ccc(C(=O)Nc3ncccc3C)o1)C(C)(C)CCC2(C)C [Compound 379] |  |  | remaining activity at 10 µM (1 h): 4% |
| Cc1cc2c(cc1Cc1ccc(C(=O)NCc3ccccc3Br)o1)C(C)(C)CCC2(C)C [Compound 449] |  |  | remaining activity at 1 µM (1 h): 42% |
| COc1ccc(C(O)C(CO)NC(=O)c2ccc(Cc3cc4c(cc3C)C(C)(C)CCC4(C)C)o2)cc1 (stereo not drawn) | -11 | 24 |  |
| CC1=CC(NC(=O)c2ccc(Cc3cc4c(cc3C)C(C)(C)CCC4(C)C)o2)=NC1c1ccccc1 (stereo not drawn) [Compound 329] |  |  | remaining activity at 10 µM (1 h): 31% |
| COc1ccc(CNC(=O)c2ccc(Cc3cc4c(cc3C)C(C)(C)CCC4(C)C)o2)cc1OC [Compound 411] |  |  | remaining activity at 1 µM (1 h): 28% |
| COc1cccc(C)c1NC(=O)c1ccc(Cc2cc3c(cc2C)C(C)(C)CCC3(C)C)o1 [Compound 378] |  |  | remaining activity at 10 µM (1 h): -4% |
| Cc1cc2c(cc1Cc1ccc(C(=O)NCCNc3ccccc3)o1)C(C)(C)CCC2(C)C [Compound 406] |  |  | remaining activity at 1 µM (1 h): 30% |
| Cc1cc2c(cc1Cc1ccc(C(=O)NCCc3c[nH]c4ccccc34)o1)C(C)(C)CCC2(C)C [drawing 1012] | 78 | 81 |  |
| Cc1cc2c(cc1Cc1ccc(C(=O)NCCNCCN3CCCC3)o1)C(C)(C)CCC2(C)C | -5 | 0 |  |
| Cc1cc2c(cc1Cc1ccc(C(=O)Nc3cccc4ncccc34)o1)C(C)(C)CCC2(C)C [Compound 346] |  |  | remaining activity at 10 µM (1 h): -14% |
| Cc1ccccc1CNC(=O)c1ccc(Cc2cc3c(cc2C)C(C)(C)CCC3(C)C)o1 [drawing 1097] | 84 | 86 |  |
| Cc1cc2c(cc1Cc1ccc(C(=O)Nc3ccc(Br)c4ccccc34)o1)C(C)(C)CCC2(C)C [Compound 388] |  |  | remaining activity at 10 µM (1 h): 30% |
| Cc1cc2c(cc1Cc1ccc(C(=O)NC3CCCCC3Cc3ccnc(NCC4CCCO4)n3)o1)C(C)(C)CCC2(C)C (stereo not drawn) | 11 | 13 |  |
| Cc1cc2c(cc1Cc1ccc(C(=O)Nc3ncc([N+](=O)[O-])cn3)o1)C(C)(C)CCC2(C)C [Compound 205] |  |  | pIC50: < 5.00 |
| Cc1cc2c(cc1Cc1ccc(C(=O)N3CCN(c4cnccn4)CC3)o1)C(C)(C)CCC2(C)C | 3 | 7 |  |
| Cc1cc2c(cc1Cc1ccc(C(=O)NCCSCCCc3ccc(CN(C)C)o3)o1)C(C)(C)CCC2(C)C [Compound 65] |  |  | pIC50: 6.15 |
| Cc1cc2c(cc1Cc1ccc(C(=O)Nc3ccc4c(c3)OCO4)o1)C(C)(C)CCC2(C)C [Compound 367] |  |  | remaining activity at 10 µM (1 h): 15% |

| Structure (SMILES) | inhibition at 1 µM [1] [%] | inhibition at 1 µM [2] [%] | also measured |
| --- | --- | --- | --- |
| CCOC(=O)Cc1ccc(NC(=O)c2ccc(Cc3cc4c(cc3C)C(C)(C)CCC4(C)C)o2)cc1 [Compound 32] |  |  | pIC50: 5.42 |
| CSc1ccc(NC(=O)c2ccc(Cc3cc4c(cc3C)C(C)(C)CCC4(C)C)o2)cc1 [Compound 366] |  |  | remaining activity at 10 µM (1 h): 37% |
| Cc1cc2c(cc1Cc1ccc(C(=O)NCC3CN(Cc4ccccc4)CCO3)o1)C(C)(C)CCC2(C)C (stereo not drawn) [Compound 59] |  |  | pIC50: 6.01 |
| Cc1cc2c(cc1Cc1ccc(C(=O)NCc3cccc4c3Cc3ccccc3-4)o1)C(C)(C)CCC2(C)C | -21 | -23 |  |
| Cc1cc2c(cc1Cc1ccc(C(=O)NC3CCCC(Nc4ccnc(NCC5CCCO5)n4)C3)o1)C(C)(C)CCC2(C)C (stereo not drawn) [drawing 1045] | 17 | 25 |  |
| Cc1nc2cc(NC(=O)c3ccc(Cc4cc5c(cc4C)C(C)(C)CCC5(C)C)o3)ccc2s1 [Compound 360] |  |  | remaining activity at 10 µM (1 h): 4% |
| COc1ccc(OC)c(Cc2ccc(C(=O)Nc3c(OC)cccc3OC)o2)c1 [Compound 202] |  |  | pIC50: 5.85 |
| Cc1cc2c(cc1Cc1ccc(C(=O)N3CCN(c4ncccn4)CC3)o1)C(C)(C)CCC2(C)C [Compound 30.5] |  |  | pIC50: 5.30 |
| COc1ccc(NC(=O)c2ccc(Cc3cc4c(cc3C)C(C)(C)CCC4(C)C)o2)cc1F [Compound 381] |  |  | remaining activity at 10 µM (1 h): 34% |
| Cc1cc2c(cc1Cc1ccc(C(=O)NCCNc3ccccc3)o1)C(C)(C)CCC2(C)C [drawing 1080] | 70 | 72 |  |
| Cc1cc2c(cc1Cc1ccc(C(=O)NCC3CCN(c4ccnc(Cl)n4)CC3)o1)C(C)(C)CCC2(C)C [drawing 1064] | 79 | 91 |  |
| COc1ccc(NC(=O)c2ccc(Cc3cc4c(cc3C)C(C)(C)CCC4(C)C)o2)c(Oc2ccc(Cl)cc2)n1 [Compound 391] |  |  | remaining activity at 10 µM (1 h): 48% |
| Cc1cc(NC(=O)c2ccc(Cc3cc4c(cc3C)C(C)(C)CCC4(C)C)o2)n(-c2ccccc2)n1 [Compound 328] |  |  | remaining activity at 10 µM (1 h): 33% |
| CCOc1ccccc1CNC(=O)c1ccc(Cc2cc3c(cc2C)C(C)(C)CCC3(C)C)o1 [Compound 412] |  |  | remaining activity at 1 µM (1 h): 49% |
| COc1cc(OC)c(NC(=O)c2ccc(Cc3cc(C4CCCCC4)ccc3C)o2)c(OC)c1 [Compound 304] |  |  | pIC50: 6.52 |
| COc1ccc(CNC(=O)c2ccc(Cc3cc4c(cc3C)C(C)(C)CCC4(C)C)o2)c(OC)c1 [Compound 450] |  |  | remaining activity at 1 µM (1 h): 6% |
| Cc1cc2c(cc1Cc1ccc(C(=O)NC3Cc4ccccc4C3)o1)C(C)(C)CCC2(C)C | 11 | 15 |  |
| Cc1cc2c(cc1Cc1ccc(C(=O)Nc3c(C)cccc3O)o1)C(C)(C)CCC2(C)C [Compound 373] |  |  | remaining activity at 10 µM (1 h): 19% |
| Cc1cc2c(cc1Cc1ccc(C(=O)NCc3cccc(Cl)c3Cl)o1)C(C)(C)CCC2(C)C [Compound 416] |  |  | remaining activity at 1 µM (1 h): 34% |
| Cc1cc2c(cc1Cc1ccc(C(=O)NCC3CCNCC3)o1)C(C)(C)CCC2(C)C [drawing 981] | 20 | 24 |  |

Second part, led by results:

| inhibition at 1 µM [1] [%] | inhibition at 1 µM [2] [%] | Structure (SMILES) | also measured |
| --- | --- | --- | --- |
| 74 | 81 | Cc1cc2c(cc1Cc1ccc(C(=O)NCc3ccc(F)cc3F)o1)C(C)(C)CCC2(C)C [drawing 1197] |  |
| 57 | 60 | Cc1cc2c(cc1Cc1ccc(C(=O)NCc3ccccc3Br)o1)C(C)(C)CCC2(C)C [drawing 1223] |  |
| 59 | 60 | Cc1cc2c(cc1Cc1ccc(C(=O)NCCc3ccccc3)o1)C(C)(C)CCC2(C)C [drawing 1079] |  |
| 15 | 19 | Cc1cc2c(cc1Cc1ccc(C(=O)NCc3ccc(Cl)c(C(F)(F)F)c3)o1)C(C)(C)CCC2(C)C |  |
| 44 | 45 | Cc1cc2c(cc1Cc1ccc(C(=O)NCc3ccc(C(=O)O)cc3)o1)C(C)(C)CCC2(C)C [drawing 1016] |  |
| -7 | 0 | Cc1cc2c(cc1Cc1ccc(C(=O)NCCN3CCCC3)o1)C(C)(C)CCC2(C)C [drawing 986] |  |
| -1 | 12 | Cc1cc2c(cc1Cc1ccc(C(=O)NC(CO)C(O)c3ccccc3)o1)C(C)(C)CCC2(C)C (stereo not drawn) |  |
| 35 | 36 | Cc1cc2c(cc1Cc1ccc(C(=O)NCCCN(CCO)CCO)o1)C(C)(C)CCC2(C)C |  |
| 29 | 32 | CCc1ccc(CCNC(=O)c2ccc(Cc3cc4c(cc3C)C(C)(C)CCC4(C)C)o2)cc1 |  |
| -3 | 2 | COc1cccc(OC)c1CNC(=O)c1ccc(Cc2cc3c(cc2C)C(C)(C)CCC3(C)C)o1 |  |
| -13 | -5 | Cc1cc2c(cc1Cc1ccc(C(=O)N3CCc4cc(O)c(O)cc4C3C)o1)C(C)(C)CCC2(C)C (stereo not drawn) |  |
| 87 | 92 | Cc1cc2c(cc1Cc1ccc(C(=O)NCc3ccc(-c4csnn4)cc3)o1)C(C)(C)CCC2(C)C [drawing 1013] |  |
| 61 | 70 | COc1ccccc1CCNC(=O)c1ccc(Cc2cc3c(cc2C)C(C)(C)CCC3(C)C)o1 [drawing 1114] |  |
| 22 | 25 | Cc1cc2c(cc1Cc1ccc(C(=O)N3CCN(c4nccc(NCC5CCCO5)n4)CC3)o1)C(C)(C)CCC2(C)C (stereo not drawn) |  |
| 22 | 28 | Cc1cc2c(cc1Cc1ccc(C(=O)NCCc3c[nH]cn3)o1)C(C)(C)CCC2(C)C [drawing 1031] |  |
| -23 | -8 | Cc1cc2c(cc1Cc1ccc(C(=O)NCCC(=O)NC(c3ccccc3)c3ccccc3)o1)C(C)(C)CCC2(C)C |  |
| 10 | 2 | CCN(Cc1ccncc1)C(=O)c1ccc(Cc2cc3c(cc2C)C(C)(C)CCC3(C)C)o1 |  |
| 16 | 22 | Cc1cc2c(cc1Cc1ccc(C(=O)NCC(C)(c3ccccc3)c3ccccc3)o1)C(C)(C)CCC2(C)C |  |
| 68 | 71 | Cc1cc2c(cc1Cc1ccc(C(=O)NCCCN3CCCC3=O)o1)C(C)(C)CCC2(C)C [drawing 1131] |  |
